In test [1] the test system is P. falciparum female gametocytes. The test can be described thus: P. falciparum Dual Gamete Formation Assay (PfDGFA), female readout (Pfs25-positive female gametes). Type of test: cell-based, Plasmodium falciparum NF54. Conditions: for Average inhibition female (%): average of replicates; for % inhibition female (individual replicates) R1: replicate R1; for % inhibition female (individual replicates) R3: replicate R3; for % inhibition female (individual replicates) R4: replicate R4. In outline: (§1)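 Day-14 NF54 gametocytes were incubated with compound for 24 h at 37°C under 1% O2/3% CO2/96% N2. Gametogenesis was triggered with ookinete medium (0.1 μM xanthurenic acid) plus Cy3-anti-Pfs25, and exflagellation was imaged by brightfield after cooling to 4°C then 28°C. Females were imaged by Pfs25 fluorescence 24 h later at 28°C.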

Test [2] relates to P. falciparum male gametocytes. In words: P. falciparum Dual Gamete Formation Assay (PfDGFA), male readout (exflagellation). Type of test: cell-based, Plasmodium falciparum NF54. The conditions noted are these: for Average inhibition male (%): average of replicates; for % inhibition male (individual replicates) R1: replicate R1; for % inhibition male (individual replicates) R3: replicate R3; for % inhibition male (individual replicates) R4: replicate R4; for Activity: hit = >50% inhibition in male or female readout in at least 3 replicates, 0 = no class assigned. In outline:
as §1

Setting [3] is: PfDGFA at 2µM, 24h preincubation with gametocytes.
Where [4] appears, read: number of replicates with >50% inhibition in the female readout, 2µM.
Where [5] appears, read: number of replicates with >50% inhibition in the male readout, 2µM.
[6] abbreviates: 2µM, 24h preincubation with gametocytes prior to induction of gametogenesis.
Where [7] appears, read: 2µM, 24h preincubation, number of replicates with >50% inhibition in the female readout.
Where [8] appears, read: 2µM, 24h preincubation, number of replicates with >50% inhibition in the male readout.
Where [9] appears, read: 2µM, 24h preincubation, hits selected on >50% inhibition in the female readout across replicates.
Where [10] appears, read: 2µM, 24h preincubation, hits selected on >50% inhibition in the male readout across replicates.
Setting [11] is: PfDGFA at 2µM, 24h preincubation.

From paper PMC10584170, “Machine learning-based phenotypic imaging to characterise the targetable biology of Plasmodium falciparum male gametocytes for the development of transmission-blocking antimalarials” (PLOS Pathogens, 2023) come the findings set out here.

`CC(=O)c1ccc2nc[nH]c(=O)c2c1` [TCMDC-138172]: in test [1] (setting [3]), the “Average inhibition female (%)” value came to 55.1%, the “% inhibition female (individual replicates) R1” value came out at 62.7%, the “% inhibition female (individual replicates) R3” value stood at 39.9% and the “% inhibition female (individual replicates) R4” value turned out to be 66.0%. In test [1] (setting [4]), this compound yielded a HitlevelF of 3. Further, in test [2] (setting [3]), the “Average inhibition male (%)” value stood at 79.0%, the “% inhibition male (individual replicates) R1” value turned out to be 88.9%, the “% inhibition male (individual replicates) R3” value worked out at 57.7% and the “% inhibition male (individual replicates) R4” value is 96.3%. Besides, the HitlevelM in test [2] (setting [5]) amounted to 4.
As to `COc1cc2nc(N3CCN(C(=O)c4c(Cl)nsc4-c4ccccc4Cl)CC3)nc(N)c2cc1OC.O=C(O)C(F)(F)F` [TCMDC-138186], in test [1] (setting [6]), the “Average inhibition female (%)” value came out at 23.5%, the “% inhibition female (individual replicates) R1” value is given as 19.4%, the “% inhibition female (individual replicates) R3” value was 2.1% and the “% inhibition female (individual replicates) R4” value amounted to 50.6%. In test [1] (setting [7]), this compound registered a HitlevelF of 1. Also, in test [2] (setting [6]), the “Average inhibition male (%)” value is recorded as 36.4%, the “% inhibition male (individual replicates) R1” value is on record as 33.1%, the “% inhibition male (individual replicates) R3” value is listed as -9.1% and the “% inhibition male (individual replicates) R4” value was found to be 66.9%. In addition, the HitlevelM in test [2] (setting [8]) is given as 2.
For `Cl.Cn1ccc(-c2cccc(Nc3ccnc4cc(-c5nccs5)ccc34)c2)n1` [TCMDC-138336], in test [1] (setting [6]), the “Average inhibition female (%)” value is reported as 19.1%, the “% inhibition female (individual replicates) R1” value was determined as 19.3%, the “% inhibition female (individual replicates) R3” value turned out to be 21.6% and the “% inhibition female (individual replicates) R4” value amounted to 9.3%. Also, in test [1] (setting [7]), the HitlevelF was 0. In test [2] (setting [6]), the “Average inhibition male (%)” value was determined as 33.2%, the “% inhibition male (individual replicates) R1” value was found to be 36.9% and the “% inhibition male (individual replicates) R4” value was 5.3%. This compound showed a HitlevelM in test [2] (setting [8]) of 1.
On to `CN(C)CCNCc1ccc(-c2ccc3c(Nc4ccc(Oc5ccccc5)cc4)ccnc3c2)o1` [TCMDC-138399], for which, in test [1] (setting [3]), the “Average inhibition female (%)” value came out at 26.2%, the “% inhibition female (individual replicates) R1” value worked out at 29.8%, the “% inhibition female (individual replicates) R3” value was determined as 23.6% and the “% inhibition female (individual replicates) R4” value amounted to 16.9%. The HitlevelF in test [1] (setting [4]) came out at 0. Moreover, in test [2] (setting [3]), the “Average inhibition male (%)” value was 74.5%, the “% inhibition male (individual replicates) R1” value is 82.1%, the “% inhibition male (individual replicates) R3” value was found to be 51.0% and the “% inhibition male (individual replicates) R4” value is 85.6%. The compound also gave a HitlevelM in test [2] (setting [5]) of 4.
`CN1CCN(Cc2nc(-c3ccc4c(Nc5ccc(Oc6ccccc6)cc5)ccnc4c3)cs2)CC1` [TCMDC-138409]: in test [1] (setting [6]), the “Average inhibition female (%)” value turned out to be 17.5%, the “% inhibition female (individual replicates) R1” value was 9.4%, the “% inhibition female (individual replicates) R3” value is 19.5% and the “% inhibition female (individual replicates) R4” value is listed as 18.6%. This compound also came in with a HitlevelF in test [1] (setting [9]) of 0. For the same compound, in test [2] (setting [6]), the “Average inhibition male (%)” value came out at 49.4%, the “% inhibition male (individual replicates) R1” value is reported as 33.1%, the “% inhibition male (individual replicates) R3” value is on record as 19.5% and the “% inhibition male (individual replicates) R4” value is reported as 56.9%. In test [2] (setting [10]), this compound registered a HitlevelM of 2. In test [2] (setting [11]), this compound had an Activity of 0.
Regarding `CN1CCN(Cc2nc(-c3ccc4c(Nc5ccc(F)c(O)c5)ccnc4c3)cs2)CC1` [TCMDC-138439], in test [1] (setting [6]), the “Average inhibition female (%)” value came to 3.7%, the “% inhibition female (individual replicates) R1” value stood at 13.1%, the “% inhibition female (individual replicates) R3” value is given as -10.3% and the “% inhibition female (individual replicates) R4” value stood at 4.9%. This compound also gave a HitlevelF in test [1] (setting [9]) of 0. Also, in test [2] (setting [6]), the “Average inhibition male (%)” value was 3.8%, the “% inhibition male (individual replicates) R1” value is -1.6%, the “% inhibition male (individual replicates) R3” value was 1.0% and the “% inhibition male (individual replicates) R4” value worked out at 20.9%. For the same compound, the HitlevelM in test [2] (setting [10]) amounted to 0. Moreover, the Activity in test [2] (setting [11]) is 0.
